ChEMBL document CHEMBL6078713, “Synthesis and mechanistic studies of 4-aminoquinoline-Isatin molecular hybrids and Schiff's bases as promising antimicrobial agents” (Eur J Med Chem, 2025)
Converted amounts (≈) assume the structure as drawn. The source made the active and inactive calls. No cut-off for these calls is given here.

Legend:
Enterococcus faecalis [1] = test: Antibacterial activity against Enterococcus faecalis MTCC 439 assessed as diameter of zone of inhibition at 500 ug/ml by agar disk diffusion method; assay type: functional; conditions: read-out: DIZ
Bacillus subtilis [2] = test: Antibacterial activity against Bacillus subtilis MTCC 736 assessed as diameter of zone of inhibition at 500 ug/ml by agar disk diffusion method; assay type: functional; conditions: read-out: DIZ
Staphylococcus aureus [3] = test: Antibacterial activity against Staphylococcus aureus MTCC 902 assessed as diameter of zone of inhibition at 500 ug/ml by agar disk diffusion method; assay type: functional; conditions: read-out: DIZ
Pseudomonas aeruginosa = test: Antibacterial activity against Pseudomonas aeruginosa MTCC 2453 assessed as diameter of zone of inhibition at 500 ug/ml by agar disk diffusion method; assay type: functional; conditions: read-out: DIZ
Salmonella typhi [4] = test: Antibacterial activity against Salmonella typhi assessed as diameter of zone of inhibition at 500 ug/ml by agar disk diffusion method; assay type: functional, Salmonella enterica subsp. enterica serovar Typhi; conditions: Salmonella enterica, read-out: DIZ
Enterococcus faecalis [5] = test: Antibacterial activity against Enterococcus faecalis MTCC 439 assessed as inhibition of bacterial growth incubated overnight by serial dilution based spectrophotometer; assay type: functional
Bacillus subtilis [6] = test: Antibacterial activity against Bacillus subtilis MTCC 736 assessed as inhibition of bacterial growth incubated overnight by serial dilution based spectrophotometer; assay type: functional
Salmonella typhi [7] = test: Antibacterial activity against Salmonella typhi assessed as inhibition of bacterial growth incubated overnight by serial dilution based spectrophotometer; assay type: functional, Salmonella enterica subsp. enterica serovar Typhi; conditions: Salmonella enterica
Salmonella typhi [8] = test: Synergistic antibacterial activity against Salmonella typhi assessed as inhibition of bacterial growth incubated overnight in presence of LT-SB5 by serial dilution based spectrophotometer; conditions: Salmonella enterica
Salmonella typhi [9] = test: Synergistic antibacterial activity against Salmonella typhi assessed as inhibition of bacterial growth incubated overnight in presence of LT-SB7 by serial dilution based spectrophotometer; conditions: Salmonella enterica
Salmonella typhi [10] = test: Synergistic antibacterial activity against Salmonella typhi assessed as inhibition of bacterial growth incubated overnight in presence of LT-SB23 by serial dilution based spectrophotometer; conditions: Salmonella enterica
Staphylococcus aureus [11] = test: Bacteriostatic activity against Staphylococcus aureus MTCC 902 assessed as reduction in bacterial growth measured upto 24 hrs by absorbance based assay; assay type: functional, organism-based
Escherichia coli = test: microbe, parasite or virus in culture; conditions: MTCC 443
Description: Synergistic antibacterial activity against Escherichia coli MTCC 443 assessed as inhibition of bacterial growth incubated overnight in presence of SB5 by serial dilution based spectrophotometer

Enterococcus faecalis [12] = test: microbe, parasite or virus in culture; conditions: MTCC 439
Description: Synergistic antibacterial activity against Enterococcus faecalis MTCC 439 assessed as inhibition of bacterial growth incubated overnight in presence of LT-SB5 by serial dilution based spectrophotometer

Enterococcus faecalis [13] = test: microbe, parasite or virus in culture; conditions: MTCC 439; remark: listed apart in the source
Description: Synergistic antibacterial activity against Enterococcus faecalis MTCC 439 assessed as inhibition of bacterial growth incubated overnight in presence of LT-SB7 by serial dilution based spectrophotometer

Enterococcus faecalis [14] = test: microbe, parasite or virus in culture; conditions: MTCC 439; remark: listed apart in the source
Description: Synergistic antibacterial activity against Enterococcus faecalis MTCC 439 assessed as inhibition of bacterial growth incubated overnight in presence of LT-SB23 by serial dilution based spectrophotometer

Enterococcus faecalis [15] = test: microbe, parasite or virus in culture; conditions: MTCC 439; remark: listed apart in the source
Description: Synergistic antibacterial activity against Enterococcus faecalis MTCC 439 assessed as inhibition of bacterial growth incubated overnight in presence of SB5 by serial dilution based spectrophotometer

Bacillus subtilis [16] = test: microbe, parasite or virus in culture; conditions: MTCC 736
Description: Synergistic antibacterial activity against Bacillus subtilis MTCC 736 assessed as inhibition of bacterial growth incubated overnight in presence of LT-SB5 by serial dilution based spectrophotometer

Bacillus subtilis [17] = test: microbe, parasite or virus in culture; conditions: MTCC 736; remark: listed apart in the source
Description: Synergistic antibacterial activity against Bacillus subtilis MTCC 736 assessed as inhibition of bacterial growth incubated overnight in presence of LT-SB7 by serial dilution based spectrophotometer

Bacillus subtilis [18] = test: microbe, parasite or virus in culture; conditions: MTCC 736; remark: listed apart in the source
Description: Synergistic antibacterial activity against Bacillus subtilis MTCC 736 assessed as inhibition of bacterial growth incubated overnight in presence of LT-SB23 by serial dilution based spectrophotometer

Bacillus subtilis [19] = test: microbe, parasite or virus in culture; conditions: MTCC 736; remark: listed apart in the source
Description: Synergistic antibacterial activity against Bacillus subtilis MTCC 736 assessed as inhibition of bacterial growth incubated overnight in presence of SB9 by serial dilution based spectrophotometer

O=C(O)c1cn(C2CC2)c2cc(N3CCNCC3)c(F)cc2c1=O [CIPROFLOXACIN]
zone of inhibition at 500 µg/mL (Enterococcus faecalis [1]): 18 mm | zone of inhibition at 500 µg/mL (Bacillus subtilis [2]): 22 mm | zone of inhibition at 500 µg/mL (Staphylococcus aureus [3]): 19 mm | zone of inhibition at 500 µg/mL (Pseudomonas aeruginosa): 24 mm | zone of inhibition at 500 µg/mL (Salmonella typhi [4]): 18 mm | MIC (Enterococcus faecalis [5]): 0.5 µg/mL (≈ 1.51 µM) | MIC (Bacillus subtilis [6]): 1 µg/mL (≈ 3.02 µM) | MIC (Salmonella typhi [7]): 0.5 µg/mL (≈ 1.51 µM) | MIC (Salmonella typhi [8]): 0.031 µg/mL | MIC (Salmonella typhi [9]): 0.031 µg/mL | MIC (Salmonella typhi [10]): 0.031 µg/mL | Activity (Staphylococcus aureus [11]): Active | MIC (Escherichia coli): 0.062 µg/mL (≈ 0.187 µM) | MIC (Enterococcus faecalis [12]): 0.5 µg/mL (≈ 1.51 µM) | MIC (Enterococcus faecalis [13]): 0.125 µg/mL (≈ 0.377 µM) | MIC (Enterococcus faecalis [14]): 0.125 µg/mL (≈ 0.377 µM) | MIC (Enterococcus faecalis [15]): 0.5 µg/mL (≈ 1.51 µM) | MIC (Bacillus subtilis [16]): 1 µg/mL (≈ 3.02 µM) | MIC (Bacillus subtilis [17]): 0.25 µg/mL (≈ 0.754 µM) | MIC (Bacillus subtilis [18]): 1 µg/mL (≈ 3.02 µM) | MIC (Bacillus subtilis [19]): 0.5 µg/mL (≈ 1.51 µM)
